# Calls of active or inactive are those of the source.
# Columns and labels:
# [1] = target: T1, Melanocortin receptor 4 (Homo sapiens, UniProt P32245); assay type: functional, cell-based;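 also: Cell-based assay with luminescence read-out, confirmatory dose-response testing for agonist activity of biased ligands at MC4R; human U2OS cells with tagged receptor and beta-arrestin; potency of agonists that increase receptor coupling to beta-arrestin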
# [2] = tested on: Vero; experiment: cells; assay type: functional, cell-based; conditions: Chlorocebus sabaeus
# [3] = control 3'UTR Renilla luciferase suppression, dose response, counter-screen for Shn3 inhibitor project, cell-based, Clone20-Shn3RL, cherry-picked (AID 624133); assay type: functional
# [4] = tested on: H4; experiment: Luminescence Cell-Based Dose Response HTS to Identify Activators of 5'UTR Stem-Loop Driven Prion Protein mRNA Translation in H4 Neuroglioblastoma Cells. [Related pubchem assays: 1829 (Project Summary), 1814 (Primary HTS)]; assay type: functional; conditions: Homo sapiens
# [5] = Luminescence Cell-Based Dose Response HTS to Identify Activators of Luciferase Translation or Activity in H4 […] Cells. [Related pubchem assays: 1829 (Project Summary), 1814 (Primary HTS)]; assay type: functional
# [6] = Luminescence Cell-Based Dose Confirmation HTS to Identify Activators of 5'UTR Stem-Loop Driven Alpha-Synuclein mRNA Translation in H4 Neuroglioblastoma Cells. [Related pubchem assays: 1829 (Project Summary), 1814 (Primary HTS)]; assay type: functional
# [7] = tested on: INS1; experiment: beta cell apoptosis inhibitors, cytokine rescue, dose response, luminescence, retest (AID 449756); assay type: functional, cell-based; conditions: Rattus norvegicus;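 also: cell death triggered by IL-1 beta plus TNF-alpha plus IFN-gamma mixture; protective hits raise ATP signal compared with cytokine alone wells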
# [8] = HepG2 cell cytotoxicity, dose response, cytotoxicity control for Shn3 inhibitor project, CellTiter-Glo, cherry-picked (AID 624134); assay type: functional, cell-based
# [9] = tested on: Vero; experiment: cells; assay type: functional; conditions: Chlorocebus sabaeus
# [10] = Shn3 3'UTR reporter inhibitors, dose response, cell-based, Clone20 osteoblasts, firefly luciferase, cherry-picked (AID 624132); assay type: functional;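 also: firefly luciferase luminescence from reporter carrying the Shn3 3'UTR in osteoblasts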
# [11] = target: T2, Interleukin-8 (Homo sapiens, UniProt P10145); experiment: Dose Response confirmation of uHTS small molecule hits for cystic fibrosis induced NFkb Inhibitors in a PAF-induced IL8 counterscreen.; assay type: functional; conditions: read-out: IC50_Mean
# T2 sequence (P10145 whole entry): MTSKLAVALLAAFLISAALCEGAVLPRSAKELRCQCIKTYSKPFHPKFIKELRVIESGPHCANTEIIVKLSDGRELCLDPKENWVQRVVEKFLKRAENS
# [12] = target: T2, Interleukin-8; experiment: Dose Response confirmation of uHTS small molecule hits for cystic fibrosis induced NFkb Inhibitors in a TNFa-induced IL8 counterscreen.; assay type: functional; conditions: read-out: IC50_Mean
# [13] = nonselective inhibitors of cellular cAMP signaling, dose response, counter-screen for MC4R biased antagonist project, cell-based, TR-FRET cAMP detection (AID 602305); assay type: functional;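 also: U2OS cells stimulated with forskolin near its EC80 as the cAMP inducer; potency is for inhibition of forskolin-stimulated cAMP signaling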
# [14] = target: T1, Melanocortin receptor 4; experiment: MC4R antagonist potency on cAMP, dose response, cell-based, TR-FRET, biased antagonists (AID 602298); assay type: functional;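 also: antagonist potency against agonist-stimulated cAMP production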
# [15] = target: Delta-type opioid receptor (Homo sapiens, UniProt P41143); experiment: Counterscreen for agonists of heterodimerization of the mu 1 (OPRM1) and delta 1 (OPRD1) opioid receptors: Luminescence-based cell-based high throughput dose response assay to identify agonists of OPRD1 homodimerization. [Related pubchem assays (depositor defined):AID504326, AID504355, AID504692, AID504904, AID504905]; assay type: functional
# [16] = target: 5-hydroxytryptamine receptor 5A (Homo sapiens, UniProt P47898); experiment: Counterscreen for agonists of OPRM1-OPRD1 heterodimerization: luminescence-based cell-based high throughput dose response assay to identify agonists of 5-hydroxytryptamine (serotonin) 5A receptor (HTR5A). [Related pubchem assays (depositor defined):AID504326, AID504355, AID504692, AID504904, AID504905]; assay type: functional
# [17] = target: Mu-type opioid receptor (Homo sapiens, UniProt P35372); experiment: Counterscreen for agonists of heterodimerization of the mu 1 (OPRM1) and delta 1 (OPRD1) opioid receptors: Luminescence-based cell-based high throughput dose response assay to identify agonists of OPRM1 homodimerization.; assay type: functional;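 also: U2OS cells expressing OPRM1 and beta-arrestin as split beta-galactosidase partners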
# [18] = target: T3, Polyadenylate-binding protein 1 (Homo sapiens, UniProt P11940); experiment: PABP1 MLLE–PAM2 binding inhibitor potency, dose response, biochemical, fluorescence polarization, FITC-PAM2 peptide (AID 602259); assay type: functional; conditions: read-out: IC50_Mean
# [19] = target: T3, Polyadenylate-binding protein 1; experiment: PABP1 MLLE–PAM2 interaction inhibitors, dose response, miRNA deadenylation inhibitor project, biochemical, fluorescence polarization, Cy5-PAM2 peptide, secondary (AID 602260); assay type: functional; conditions: read-out: IC50_Mean
# [20] = HeLa cell cytotoxicity, dose response, cytotoxicity control for MgcRacGAP inhibitor project (AID 624300); assay type: functional
# [21] = target: T4, Replicative DNA helicase DnaB (Mycobacterium tuberculosis, UniProt P9WMR3); experiment: DnaB intein splicing inhibitors, dose response, biochemical, cell-free fluorescence (AID 449749); assay type: functional
# T4 sequence (P9WMR3 whole entry): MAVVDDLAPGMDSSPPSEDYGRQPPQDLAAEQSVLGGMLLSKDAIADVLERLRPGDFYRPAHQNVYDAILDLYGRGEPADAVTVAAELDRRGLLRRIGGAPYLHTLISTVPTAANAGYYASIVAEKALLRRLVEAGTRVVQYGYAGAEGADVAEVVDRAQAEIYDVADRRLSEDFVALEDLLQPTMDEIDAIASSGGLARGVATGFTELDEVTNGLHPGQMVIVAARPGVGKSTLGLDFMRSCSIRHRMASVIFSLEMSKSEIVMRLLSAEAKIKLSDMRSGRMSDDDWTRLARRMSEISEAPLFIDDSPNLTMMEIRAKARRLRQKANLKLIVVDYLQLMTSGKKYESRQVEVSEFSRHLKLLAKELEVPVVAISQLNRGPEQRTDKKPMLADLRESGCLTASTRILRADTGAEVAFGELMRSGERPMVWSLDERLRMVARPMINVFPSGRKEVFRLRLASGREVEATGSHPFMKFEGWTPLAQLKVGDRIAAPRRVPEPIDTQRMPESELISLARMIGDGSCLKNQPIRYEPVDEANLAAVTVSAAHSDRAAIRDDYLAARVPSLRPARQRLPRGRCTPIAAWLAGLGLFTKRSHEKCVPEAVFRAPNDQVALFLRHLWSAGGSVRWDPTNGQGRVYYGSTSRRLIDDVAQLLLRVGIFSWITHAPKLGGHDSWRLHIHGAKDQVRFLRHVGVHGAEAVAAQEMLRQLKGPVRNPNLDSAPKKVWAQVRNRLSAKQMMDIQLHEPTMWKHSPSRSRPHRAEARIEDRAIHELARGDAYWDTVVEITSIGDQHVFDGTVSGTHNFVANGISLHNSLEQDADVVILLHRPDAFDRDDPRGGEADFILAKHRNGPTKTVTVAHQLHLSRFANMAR
# [22] = target: Dual specificity tyrosine-phosphorylation-regulated kinase 1A (Rattus norvegicus, UniProt Q63470); assay type: biochemical, Homo sapiens
# [23] = target: T5, Rac GTPase-activating protein 1 (Homo sapiens, UniProt Q9H0H5); experiment: MgcRacGAP GTPase-activating activity inhibitors, confirmation, biochemical, ADP Hunter fluorescence, primary and confirmatory (AID 624330); assay type: functional
# T5 sequence (Q9H0H5 whole entry): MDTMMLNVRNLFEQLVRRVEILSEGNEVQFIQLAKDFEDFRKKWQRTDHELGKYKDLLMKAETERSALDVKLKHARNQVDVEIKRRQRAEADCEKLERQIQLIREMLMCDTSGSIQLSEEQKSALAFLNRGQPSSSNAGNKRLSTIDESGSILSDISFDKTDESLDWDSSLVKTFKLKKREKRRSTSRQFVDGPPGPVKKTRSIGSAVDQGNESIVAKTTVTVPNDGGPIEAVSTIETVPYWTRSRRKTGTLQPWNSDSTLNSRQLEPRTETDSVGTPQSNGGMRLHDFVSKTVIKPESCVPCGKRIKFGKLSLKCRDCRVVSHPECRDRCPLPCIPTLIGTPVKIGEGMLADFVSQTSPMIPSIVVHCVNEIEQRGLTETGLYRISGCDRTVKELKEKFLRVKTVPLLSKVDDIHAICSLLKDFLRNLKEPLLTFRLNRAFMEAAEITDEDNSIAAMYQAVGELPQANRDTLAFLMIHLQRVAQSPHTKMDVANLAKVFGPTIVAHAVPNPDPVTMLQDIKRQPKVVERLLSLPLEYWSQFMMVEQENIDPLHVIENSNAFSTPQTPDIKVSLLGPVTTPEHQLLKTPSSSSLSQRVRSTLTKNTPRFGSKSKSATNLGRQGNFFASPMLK
# [24] = target: T6, Protein RecA (Mycobacterium tuberculosis, UniProt P9WHJ3); experiment: Fluorescence Cell-Free Homogeneous Dose Retest to Identify Inhibitors of RecA-Intein Splicing Activity. [Related pubchem assays (depositor defined):AID2097, AID2223, AID489010, AID492950]; assay type: functional
# T6 sequence (P9WHJ3 whole entry): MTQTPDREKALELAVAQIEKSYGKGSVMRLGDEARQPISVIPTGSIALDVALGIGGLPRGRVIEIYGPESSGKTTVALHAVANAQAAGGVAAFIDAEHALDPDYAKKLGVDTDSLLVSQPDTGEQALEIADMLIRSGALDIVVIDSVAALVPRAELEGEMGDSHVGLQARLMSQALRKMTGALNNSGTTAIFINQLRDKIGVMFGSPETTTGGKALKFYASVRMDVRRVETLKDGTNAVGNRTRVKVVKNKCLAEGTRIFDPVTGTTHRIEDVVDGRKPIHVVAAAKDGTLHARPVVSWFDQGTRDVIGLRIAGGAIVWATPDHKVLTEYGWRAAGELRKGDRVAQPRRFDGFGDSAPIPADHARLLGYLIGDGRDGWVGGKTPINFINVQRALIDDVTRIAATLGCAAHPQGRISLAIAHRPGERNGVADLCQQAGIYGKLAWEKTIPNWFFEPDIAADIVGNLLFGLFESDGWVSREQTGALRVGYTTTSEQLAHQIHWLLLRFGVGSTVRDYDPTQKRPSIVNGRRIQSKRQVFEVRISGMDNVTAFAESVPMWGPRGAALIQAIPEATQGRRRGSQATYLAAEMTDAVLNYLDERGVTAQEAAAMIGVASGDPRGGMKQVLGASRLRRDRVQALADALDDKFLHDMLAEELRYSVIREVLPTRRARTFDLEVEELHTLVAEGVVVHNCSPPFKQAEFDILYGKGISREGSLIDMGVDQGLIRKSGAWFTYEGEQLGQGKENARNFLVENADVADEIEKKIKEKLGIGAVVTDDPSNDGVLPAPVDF
# T1 sequence (P32245 whole entry): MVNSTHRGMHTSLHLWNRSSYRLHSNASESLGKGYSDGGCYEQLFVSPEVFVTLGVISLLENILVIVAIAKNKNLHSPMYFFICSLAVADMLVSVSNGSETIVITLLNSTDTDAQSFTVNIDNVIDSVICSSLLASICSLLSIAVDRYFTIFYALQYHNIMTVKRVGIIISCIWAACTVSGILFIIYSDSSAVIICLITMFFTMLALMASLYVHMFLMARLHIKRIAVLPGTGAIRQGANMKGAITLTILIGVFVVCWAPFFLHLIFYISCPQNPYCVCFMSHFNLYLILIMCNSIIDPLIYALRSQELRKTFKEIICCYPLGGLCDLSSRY
# T3 sequence (P11940 whole entry): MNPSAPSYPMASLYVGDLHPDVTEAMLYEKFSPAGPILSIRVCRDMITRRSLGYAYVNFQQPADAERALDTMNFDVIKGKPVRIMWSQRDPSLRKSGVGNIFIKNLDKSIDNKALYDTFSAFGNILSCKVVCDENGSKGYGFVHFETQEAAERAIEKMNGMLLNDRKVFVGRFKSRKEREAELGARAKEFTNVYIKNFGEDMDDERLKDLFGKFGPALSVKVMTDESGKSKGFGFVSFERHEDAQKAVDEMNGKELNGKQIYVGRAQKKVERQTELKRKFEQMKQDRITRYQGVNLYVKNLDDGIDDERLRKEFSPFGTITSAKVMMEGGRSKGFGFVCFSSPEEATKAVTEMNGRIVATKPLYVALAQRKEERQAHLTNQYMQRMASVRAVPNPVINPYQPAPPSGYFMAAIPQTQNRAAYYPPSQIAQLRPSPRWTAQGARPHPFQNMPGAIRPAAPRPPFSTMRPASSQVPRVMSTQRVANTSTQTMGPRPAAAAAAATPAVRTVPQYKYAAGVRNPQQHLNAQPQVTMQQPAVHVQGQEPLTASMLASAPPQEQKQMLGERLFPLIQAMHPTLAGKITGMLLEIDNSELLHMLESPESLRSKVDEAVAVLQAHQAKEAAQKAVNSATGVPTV
# Chain of Mu-type opioid receptor (P35372 whole entry): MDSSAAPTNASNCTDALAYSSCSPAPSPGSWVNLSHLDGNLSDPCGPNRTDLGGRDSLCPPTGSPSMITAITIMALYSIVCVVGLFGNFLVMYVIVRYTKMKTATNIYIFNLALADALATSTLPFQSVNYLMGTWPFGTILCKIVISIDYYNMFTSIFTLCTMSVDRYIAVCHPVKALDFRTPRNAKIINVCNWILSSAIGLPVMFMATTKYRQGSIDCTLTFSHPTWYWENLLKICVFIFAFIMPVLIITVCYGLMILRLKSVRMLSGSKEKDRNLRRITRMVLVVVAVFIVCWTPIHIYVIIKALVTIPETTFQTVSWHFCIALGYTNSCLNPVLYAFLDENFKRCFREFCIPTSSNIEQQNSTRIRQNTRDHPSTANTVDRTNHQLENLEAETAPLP
# Chain of Delta-type opioid receptor (P41143 whole entry): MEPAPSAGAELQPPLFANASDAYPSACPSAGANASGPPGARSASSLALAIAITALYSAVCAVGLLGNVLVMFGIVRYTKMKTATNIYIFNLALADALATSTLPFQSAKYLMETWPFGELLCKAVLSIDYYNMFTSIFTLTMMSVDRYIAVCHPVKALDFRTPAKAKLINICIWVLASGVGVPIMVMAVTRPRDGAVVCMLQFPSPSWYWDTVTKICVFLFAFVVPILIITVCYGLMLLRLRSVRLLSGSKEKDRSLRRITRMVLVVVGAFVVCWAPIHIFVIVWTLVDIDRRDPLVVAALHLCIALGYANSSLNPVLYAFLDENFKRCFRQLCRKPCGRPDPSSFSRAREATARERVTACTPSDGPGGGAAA
# Chain of 5-hydroxytryptamine receptor 5A (P47898 whole entry): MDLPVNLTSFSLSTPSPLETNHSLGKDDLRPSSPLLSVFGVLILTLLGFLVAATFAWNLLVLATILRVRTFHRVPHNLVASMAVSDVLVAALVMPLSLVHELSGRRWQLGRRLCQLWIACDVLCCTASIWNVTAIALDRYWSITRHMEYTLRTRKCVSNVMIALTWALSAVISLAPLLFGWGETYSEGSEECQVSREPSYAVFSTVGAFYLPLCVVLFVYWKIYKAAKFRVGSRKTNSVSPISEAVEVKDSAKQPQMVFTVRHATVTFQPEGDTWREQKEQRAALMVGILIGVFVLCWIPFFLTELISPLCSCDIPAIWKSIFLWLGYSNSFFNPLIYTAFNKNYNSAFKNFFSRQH
smiles,measurement,setting,value
CC(=O)Nc1cc(-c2cccc(F)c2)cn2c(-c3ccc(F)cc3)cnc12,EC50,[1],> 89.2 µM (inactive)
C=CCSc1nc2ccccc2n1C(=O)/C=C/c1ccc(OC)c(OC)c1,IC50,[2],> 25 µM (active)
same,AC50,[3],12.5 µM (active)
same,EC50,[4],> 120 µM (not active)
same,EC50,[5],> 120 µM (not active)
same,EC50,[6],> 120 µM (not active)
same,AC50,[7],8.85 µM (active)
same,AC50,[8],49.4 µM (active)
same,CC50,[9],9.91 µM (active)
same,AC50,[10],1.31 µM (active)
same,IC50,[11],0.685 µM (active)
same,IC50,[12],> 79 µM (inactive)
CCN(CC)S(=O)(=O)c1ccc(N2CCOCC2)c(NC(=O)c2ccccc2F)c1,IC50,[13],> 64.6 µM (inactive)
same,IC50,[14],> 64.6 µM (inactive)
CN(C)CCCN(C(=O)c1ccc(S(=O)(=O)N(C)Cc2ccccc2)cc1)c1nc2c(F)cccc2s1,EC50,[15],> 30.8 µM (inactive)
same,EC50,[16],> 92.5 µM (inactive)
same,EC50,[17],26.2 µM (inactive)
O=S1(=O)CCC(NC(=S)SCCOc2ccccc2)C1 (configuration not stated),IC50,[18],> 66 µM (inactive)
same,IC50,[19],> 66 µM (inactive)
same,IC50,[11],3.07 µM (active)
same,IC50,[12],3.66 µM (active)
CCCCCCCCNS(=O)(=O)CCNCCc1ccccc1,EC50,[1],> 89.1 µM (inactive)
Oc1ccc(NC(=S)N=Nc2c(O)[nH]c3ccc(Br)cc23)cc1,CC50,[20],61.5 µM (active)
same,AC50,[21],12.1 µM (active)
same,AC50,[22],1.2 µM (active)
same,IC50,[23],152 µM (active)
same,EC50,[24],13.7 µM (active)
